The record followed here is patent publication US11040981B2, “Pyrrolotriazine compounds and methods of inhibiting TAM kinases” (Syros Pharmaceuticals, Inc., priority 2017, dated 2021).

Molecules are shown by their SMILES.

The target of one experiment is T1, AXL (Homo sapiens, UniProt P30530).
T1 sequence (P30530 26-894): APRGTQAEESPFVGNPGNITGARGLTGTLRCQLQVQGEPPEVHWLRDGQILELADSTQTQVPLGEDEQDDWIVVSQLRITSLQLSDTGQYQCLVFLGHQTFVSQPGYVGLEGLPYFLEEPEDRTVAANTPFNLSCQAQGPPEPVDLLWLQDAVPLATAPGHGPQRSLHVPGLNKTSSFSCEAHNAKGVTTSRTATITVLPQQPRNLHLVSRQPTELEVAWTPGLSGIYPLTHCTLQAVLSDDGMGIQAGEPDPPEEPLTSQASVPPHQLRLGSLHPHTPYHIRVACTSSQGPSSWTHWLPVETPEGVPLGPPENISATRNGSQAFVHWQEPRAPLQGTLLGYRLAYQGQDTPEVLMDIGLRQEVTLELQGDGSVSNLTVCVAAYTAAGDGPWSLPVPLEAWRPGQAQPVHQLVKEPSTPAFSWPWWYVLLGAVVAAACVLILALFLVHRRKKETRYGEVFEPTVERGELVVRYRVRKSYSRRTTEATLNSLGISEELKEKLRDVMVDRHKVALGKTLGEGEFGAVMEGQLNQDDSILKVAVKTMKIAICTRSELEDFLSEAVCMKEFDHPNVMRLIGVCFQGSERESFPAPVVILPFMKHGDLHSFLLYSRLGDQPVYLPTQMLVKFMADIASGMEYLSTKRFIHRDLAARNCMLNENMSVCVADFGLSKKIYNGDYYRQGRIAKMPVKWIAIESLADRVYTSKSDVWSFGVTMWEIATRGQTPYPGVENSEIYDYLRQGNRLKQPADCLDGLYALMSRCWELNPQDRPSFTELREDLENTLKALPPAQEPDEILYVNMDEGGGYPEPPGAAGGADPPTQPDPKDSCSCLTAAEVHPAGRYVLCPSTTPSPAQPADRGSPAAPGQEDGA
The experiment is described as follows: TR-FRET kinase activity assay, AXL. The following applies: ATP at Km, 60 minutes. Format: biochemical. In outline: (§1)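 Compounds were tested against each kinase with ATP set at its own Km and a labelled tyrosine peptide substrate. Following one hour at room temperature in buffer containing 10 mM MgCl2 and 1 mM DTT, phosphorylated product was detected by Europium antibody TR-FRET after EDTA quench, and IC50 values were calculated.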

A further experiment has as its target T2, MERTK (Homo sapiens, UniProt Q12866).
T2 sequence (Q12866 21-999): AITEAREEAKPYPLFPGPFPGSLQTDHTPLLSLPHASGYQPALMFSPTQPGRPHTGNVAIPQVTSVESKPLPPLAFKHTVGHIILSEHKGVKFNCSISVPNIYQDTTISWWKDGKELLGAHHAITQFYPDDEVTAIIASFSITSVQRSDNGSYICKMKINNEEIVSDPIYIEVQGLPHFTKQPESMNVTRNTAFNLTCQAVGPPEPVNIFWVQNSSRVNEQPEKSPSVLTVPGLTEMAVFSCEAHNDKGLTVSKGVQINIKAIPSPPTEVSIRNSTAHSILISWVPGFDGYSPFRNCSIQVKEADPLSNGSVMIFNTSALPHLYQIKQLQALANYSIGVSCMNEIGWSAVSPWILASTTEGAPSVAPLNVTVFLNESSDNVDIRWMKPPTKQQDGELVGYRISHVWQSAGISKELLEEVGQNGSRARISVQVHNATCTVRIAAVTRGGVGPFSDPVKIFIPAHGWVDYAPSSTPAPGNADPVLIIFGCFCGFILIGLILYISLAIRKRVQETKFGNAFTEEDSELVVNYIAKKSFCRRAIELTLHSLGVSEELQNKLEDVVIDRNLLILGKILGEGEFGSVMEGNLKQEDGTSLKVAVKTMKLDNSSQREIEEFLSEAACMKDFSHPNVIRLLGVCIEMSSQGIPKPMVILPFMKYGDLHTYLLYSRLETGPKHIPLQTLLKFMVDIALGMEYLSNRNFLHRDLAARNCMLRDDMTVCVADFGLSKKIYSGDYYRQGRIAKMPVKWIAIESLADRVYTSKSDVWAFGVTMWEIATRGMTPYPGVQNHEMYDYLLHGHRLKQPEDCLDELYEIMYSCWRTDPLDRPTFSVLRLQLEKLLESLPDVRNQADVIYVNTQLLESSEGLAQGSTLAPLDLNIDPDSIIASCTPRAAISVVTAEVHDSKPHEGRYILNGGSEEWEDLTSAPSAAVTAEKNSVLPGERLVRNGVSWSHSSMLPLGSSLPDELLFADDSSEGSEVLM
The experiment is described as follows: TR-FRET kinase activity assay, MERTK. Format: biochemical. The following applies: for IC50: TR-FRET activity assay, ATP at Km, 60 minutes, read-out: Mer IC50; for FLT3/Mer ratio (FLT3 IC50/Mer IC50): ratio of Mer to FLT3: FLT3 IC50/Mer IC50. In outline: as §1

As to `CNc1c(N[C@H]2CC[C@H](c3cc(-c4ccc(CN5CCOCC5)cc4)c4cnc(N[C@@H](C)COC)nn43)CC2)c(=O)c1=O` [Compound 316, 3-(((trans)-4-(2-(((S)-1-methoxypropan-2-yl)amino)-5-(4-(morpholinomethyl)phenyl)pyrrolo[2,1-f][1,2,4]triazin-7-yl)cyclohexyl)amino)-4-(methylamino)cyclobut-3-ene-1,2-dione], the IC50 against AXL and at MERTK was no more than 0.1 µM in each case. In addition, the “FLT3/Mer ratio (FLT3 IC50/Mer IC50)” value on MERTK was “++ (“++” represents a ratio of between 10 and 100)”.
Consider `COC[C@H](C)Nc1ncc2c(-c3cnn(C(C)(C)C(=O)N4CCC4)c3)cc([C@H]3CC[C@H](O)CC3)n2n1` [Compound 283], for which, on AXL, the IC50 is no more than 0.1 µM. At MERTK, the IC50 was no more than 0.1 µM and the “FLT3/Mer ratio (FLT3 IC50/Mer IC50)” value is on record as “+++ (“+++” represents a ratio of >100)”.
On AXL, `CCCCC[C@H](C)Nc1ncc2c(N3CCC(C(=O)O)CC3)cc([C@H]3CC[C@H](O)CC3)n2n1` [Compound 117] showed an IC50 of 0.1 to 1 µM. Moreover, on MERTK, the IC50 is no more than 0.1 µM and the “FLT3/Mer ratio (FLT3 IC50/Mer IC50)” value is reported as “+++ (“+++” represents a ratio of >100)”.
Turning to `CC(CC(F)(F)F)Nc1ncc2c(-c3cnc(C(=O)O)nc3)cc(C3CCC(O)CC3)n2n1` (stereo not drawn) [Compound 299], on AXL, the IC50 is no more than 0.1 µM. Further, on MERTK, the IC50 is no more than 0.1 µM and the “FLT3/Mer ratio (FLT3 IC50/Mer IC50)” value is listed as “+++ (“+++” represents a ratio of >100)”.
Consider `C[C@@H](CC(F)(F)F)Nc1ncc2c(-c3cncc(C(=O)N4CCOCC4)c3)cc([C@H]3CC[C@H](O)CC3)n2n1` [Compound 311], for which the 50% inhibitory concentration (IC50) on AXL and on MERTK was no more than 0.1 µM throughout. The “FLT3/Mer ratio (FLT3 IC50/Mer IC50)” value on MERTK is listed as “+++ (“+++” represents a ratio of >100)”.
On to `COCC(C)Nc1ncc2c(-c3cnn(Cc4ccc(=O)n(C)c4)c3)cc(C3CCC(O)CC3)n2n1` (stereo not drawn) [Compound 322], for which the IC50 at AXL is no more than 0.1 µM. Further, on MERTK, the half-inhibitory concentration (IC50) was no more than 0.1 µM and the “FLT3/Mer ratio (FLT3 IC50/Mer IC50)” value is on record as “+++ (“+++” represents a ratio of >100)”.
As to `COC[C@H](C)Nc1ncc2c(-c3cnn(C4CN(C(C)=O)C4)c3)cc([C@H]3CC[C@H](O)CC3)n2n1` [Compound 286], the IC50 on AXL was no more than 0.1 µM. At MERTK, the half-inhibitory concentration (IC50) is no more than 0.1 µM and the “FLT3/Mer ratio (FLT3 IC50/Mer IC50)” value was “+++ (“+++” represents a ratio of >100)”.
Turning to `C[C@@H](CC(F)(F)F)Nc1ncc2c(-c3cnn(CCS(C)(=O)=O)c3)cc([C@H]3CC[C@H](O)CC3)n2n1` [Compound 288], the concentration for half-maximal inhibition (IC50) against AXL is no more than 0.1 µM. At MERTK, the half-maximal inhibitory concentration (IC50) was no more than 0.1 µM; the “FLT3/Mer ratio (FLT3 IC50/Mer IC50)” value is “++ (“++” represents a ratio of between 10 and 100)”.
Turning to `COC[C@H](C)Nc1ncc2c(-c3ccnc(N4CCN(S(C)(=O)=O)CC4)c3)cc([C@H]3CC[C@H](O)CC3)n2n1` [Compound 338], the IC50 at AXL and at MERTK was no more than 0.1 µM throughout. Also, the “FLT3/Mer ratio (FLT3 IC50/Mer IC50)” value at MERTK is given as “+++ (“+++” represents a ratio of >100)”.
As to `COC[C@H](C)Nc1ncc2c(-c3cnn(Cc4cn[nH]c4)c3)cc([C@H]3CC[C@H](O)CC3)n2n1` [Compound 332], the half-inhibitory concentration (IC50) against AXL is no more than 0.1 µM. Further, at MERTK, the IC50 is no more than 0.1 µM and the “FLT3/Mer ratio (FLT3 IC50/Mer IC50)” value is listed as “+++ (“+++” represents a ratio of >100)”.
`COC[C@H](C)Nc1ncc2c(-c3cnn(Cc4cnccn4)c3)cc([C@H]3CC[C@H](O)CC3)n2n1` [Compound 305] came in with an IC50 against AXL of no more than 0.1 µM. For the same compound, on MERTK, the half-maximal inhibitory concentration (IC50) is no more than 0.1 µM and the “FLT3/Mer ratio (FLT3 IC50/Mer IC50)” value is “+++ (“+++” represents a ratio of >100)”.
`COC[C@H](C)Nc1ncc2c(-c3cnn(C(C)(C)C(=O)O)c3)cc([C@H]3CC[C@H](O)CC3)n2n1` [Compound 284] displayed an IC50 on AXL of 0.1 to 1 µM. Also, on MERTK, the IC50 was no more than 0.1 µM and the “FLT3/Mer ratio (FLT3 IC50/Mer IC50)” value is reported as “+++ (“+++” represents a ratio of >100)”.
